Measurements from patent US20250230193A1, “CYCLIC COMPOUND HAVING SELECTIVE KRAS INHIBITORY EFFECT ON HRAS AND NRAS” (CHUGAI SEIYAKU KABUSHIKI KAISHA, priority 2022, published 2025).
*1 amine or outer side, *2 acyl side, *3 side chain or, on linkers, in order; H or OH if unused. Where a SMILES comes first, the peptide text is derived from it. Bridges are numbered along the chain shown (N, C = ends). [ ]: non-standard residue; d: D form. The star is where a group is joined. hPhe(3-Cl-4-CF3) = N[C@@H](CCc1ccc(C(F)(F)F)c(Cl)c1)C(=O)O; X35 = Cc1ccc(C[C@@H](C(=O)[*:2])N(CCC(C)(C)C)[*:1])cc1; X41 = Cc1ccc(C[C@@H](C(=O)[*:2])N(CCC(F)(F)F)[*:1])cc1; NPrPhe(4-CF3) = CCCN[C@@H](Cc1ccc(C(F)(F)F)cc1)C(=O)O; X27 = Cc1ccc(C[C@@H](C(=O)[*:2])N(CC2CCCCC2)[*:1])cc1; X29 = Cc1ccc(C[C@@H](C(=O)[*:2])N(CC2CCCC2)[*:1])cc1; X34 = Cc1ccc(C[C@@H](C(=O)[*:2])N(CCC(C)C)[*:1])cc1; X43 = Cc1ccc(C[C@@H](C(=O)[*:2])N(CC2CCC2)[*:1])cc1; X26 = COCCCN([C@@H](Cc1ccc(C)cc1)C(=O)[*:2])[*:1]; X48 = C=CCCN([C@@H](Cc1ccc(C)cc1)C(=O)[*:2])[*:1]; X12 = COCCN([C@@H](Cc1ccc(C)cc1)C(=O)[*:2])[*:1]; X50 = C=CCN([C@@H](Cc1ccc(C)cc1)C(=O)[*:2])[*:1]; NMeGly(cPent) = CN[C@H](C(=O)O)C1CCCC1; NMeD = CN[C@@H](CC(=O)O)C(=O)O; NMeL = CN[C@@H](CC(C)C)C(=O)O; Morpholide = C1CN(*)CCO1; NMeA = CN[C@@H](C)C(=O)O; Ac5c = NC1(C(=O)O)CCCC1; Aze = O=C(O)[C@@H]1CCN1; Sar = CNCC(=O)O

What was measured:
[1] = target: GDP-bound NRAS wild-type protein (Homo sapiens, UniProt P01111); assay: Binding to NRAS by surface plasmon resonance (SPR), Single Cycle Kinetics; details: KD ratio NRAS/KRAS, SPR
[2] = target: GDP-bound HRAS wild-type protein (Homo sapiens, UniProt P01112); assay: Binding to HRAS by surface plasmon resonance (SPR), Single Cycle Kinetics; details: KD ratio HRAS/KRAS, SPR
GDP-bound HRAS wild-type protein, sequence (P01112 whole entry): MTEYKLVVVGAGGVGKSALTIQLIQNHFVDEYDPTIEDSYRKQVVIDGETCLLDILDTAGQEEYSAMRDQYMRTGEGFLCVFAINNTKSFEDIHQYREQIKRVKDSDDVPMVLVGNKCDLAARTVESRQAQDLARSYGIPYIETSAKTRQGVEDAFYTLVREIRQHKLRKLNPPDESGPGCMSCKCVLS

GDP-bound NRAS wild-type protein, sequence (P01111 whole entry): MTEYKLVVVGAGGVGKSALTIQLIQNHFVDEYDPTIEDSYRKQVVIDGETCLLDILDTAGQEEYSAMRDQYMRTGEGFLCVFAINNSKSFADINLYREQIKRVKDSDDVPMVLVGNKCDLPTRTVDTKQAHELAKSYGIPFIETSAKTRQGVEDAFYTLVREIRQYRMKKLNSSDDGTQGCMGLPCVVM

| Structure (SMILES) | NRAS/KRAS (ratio of KD for GDP-bound NRAS wild-type to KD for KRAS) [1] | HRAS/KRAS (ratio of KD for GDP-bound HRAS wild-type to KD for KRAS) [2] |
| --- | --- | --- |
| CCCN1C(=O)[C@@H]2CCN2C(=O)[C@H](C)NC(=O)[C@H]([C@@H](C)CC)NC(=O)[C@H](CC(C)C)N(C)C(=O)C[C@@H](C(=O)N2CCOCC2)N(C)C(=O)[C@H](C2CCCC2)N(C)C(=O)C2(CCCC2)NC(=O)[C@@H]2CCCN2C(=O)[C@H](CCc2ccc(C(F)(F)F)c(Cl)c2)NC(=O)CN(C)C(=O)[C@@H]1Cc1ccc(C(F)(F)F)cc1 [PP0078] ([NMeL]IA[Aze][NPrPhe(4-CF3)][Sar][hPhe(3-Cl-4-CF3)]P[Ac5c][NMeGly(cPent)][NMeD]-Morpholide; lactam N-11) | C (A compound having a KD ratio of 0.1 or more and less than 3 is denoted as C) | B (a compound having 3 or more and less than 10 is denoted as B) |
| CC[C@H](C)[C@@H]1NC(=O)[C@H](CC(C)C)N(C)C(=O)C[C@@H](C(=O)N2CCOCC2)N(C)C(=O)[C@H](C2CCCC2)N(C)C(=O)C2(CCCC2)NC(=O)[C@@H]2CCCN2C(=O)[C@H](CCc2ccc(C(F)(F)F)c(Cl)c2)NC(=O)CN(C)C(=O)[C@H](Cc2ccc(C)cc2)N(CC2CCCC2)C(=O)[C@@H]2CCN2C(=O)[C@H](C)N(C)C1=O [PP0084] ([NMeL]I[NMeA][Aze][X29][Sar][hPhe(3-Cl-4-CF3)]P[Ac5c][NMeGly(cPent)][NMeD]-Morpholide; lactam N-11) | C (A compound having a KD ratio of 0.1 or more and less than 3 is denoted as C) | B (a compound having 3 or more and less than 10 is denoted as B) |
| CC[C@H](C)[C@@H]1NC(=O)[C@H](CC(C)C)N(C)C(=O)C[C@@H](C(=O)N2CCOCC2)N(C)C(=O)[C@H](C2CCCC2)N(C)C(=O)C2(CCCC2)NC(=O)[C@@H]2CCCN2C(=O)[C@H](CCc2ccc(C(F)(F)F)c(Cl)c2)NC(=O)CN(C)C(=O)[C@H](Cc2ccc(C)cc2)N(CC2CCCCC2)C(=O)[C@@H]2CCN2C(=O)[C@H](C)N(C)C1=O [PP0085] ([NMeL]I[NMeA][Aze][X27][Sar][hPhe(3-Cl-4-CF3)]P[Ac5c][NMeGly(cPent)][NMeD]-Morpholide; lactam N-11) | C (A compound having a KD ratio of 0.1 or more and less than 3 is denoted as C) | C (A compound having a KD ratio of 0.1 or more and less than 3 is denoted as C) |
| CC[C@H](C)[C@@H]1NC(=O)[C@H](CC(C)C)N(C)C(=O)C[C@@H](C(=O)N2CCOCC2)N(C)C(=O)[C@H](C2CCCC2)N(C)C(=O)C2(CCCC2)NC(=O)[C@@H]2CCCN2C(=O)[C@H](CCc2ccc(C(F)(F)F)c(Cl)c2)NC(=O)CN(C)C(=O)[C@H](Cc2ccc(C)cc2)N(CCC(C)C)C(=O)[C@@H]2CCN2C(=O)[C@H](C)N(C)C1=O [PP0086] ([NMeL]I[NMeA][Aze][X34][Sar][hPhe(3-Cl-4-CF3)]P[Ac5c][NMeGly(cPent)][NMeD]-Morpholide; lactam N-11) | C (A compound having a KD ratio of 0.1 or more and less than 3 is denoted as C) | B (a compound having 3 or more and less than 10 is denoted as B) |
| CC[C@H](C)[C@@H]1NC(=O)[C@H](CC(C)C)N(C)C(=O)C[C@@H](C(=O)N2CCOCC2)N(C)C(=O)[C@H](C2CCCC2)N(C)C(=O)C2(CCCC2)NC(=O)[C@@H]2CCCN2C(=O)[C@H](CCc2ccc(C(F)(F)F)c(Cl)c2)NC(=O)CN(C)C(=O)[C@H](Cc2ccc(C)cc2)N(CCC(C)(C)C)C(=O)[C@@H]2CCN2C(=O)[C@H](C)N(C)C1=O [PP0087] ([NMeL]I[NMeA][Aze][X35][Sar][hPhe(3-Cl-4-CF3)]P[Ac5c][NMeGly(cPent)][NMeD]-Morpholide; lactam N-11) | C (A compound having a KD ratio of 0.1 or more and less than 3 is denoted as C) | C (A compound having a KD ratio of 0.1 or more and less than 3 is denoted as C) |
| C=CCCN1C(=O)[C@@H]2CCN2C(=O)[C@H](C)N(C)C(=O)[C@H]([C@@H](C)CC)NC(=O)[C@H](CC(C)C)N(C)C(=O)C[C@@H](C(=O)N2CCOCC2)N(C)C(=O)[C@H](C2CCCC2)N(C)C(=O)C2(CCCC2)NC(=O)[C@@H]2CCCN2C(=O)[C@H](CCc2ccc(C(F)(F)F)c(Cl)c2)NC(=O)CN(C)C(=O)[C@@H]1Cc1ccc(C)cc1 [PP0089] ([NMeL]I[NMeA][Aze][X48][Sar][hPhe(3-Cl-4-CF3)]P[Ac5c][NMeGly(cPent)][NMeD]-Morpholide; lactam N-11) | C (A compound having a KD ratio of 0.1 or more and less than 3 is denoted as C) | B (a compound having 3 or more and less than 10 is denoted as B) |
| CC[C@H](C)[C@@H]1NC(=O)[C@H](CC(C)C)N(C)C(=O)C[C@@H](C(=O)N2CCOCC2)N(C)C(=O)[C@H](C2CCCC2)N(C)C(=O)C2(CCCC2)NC(=O)[C@@H]2CCCN2C(=O)[C@H](CCc2ccc(C(F)(F)F)c(Cl)c2)NC(=O)CN(C)C(=O)[C@H](Cc2ccc(C)cc2)N(CCC(F)(F)F)C(=O)[C@@H]2CCN2C(=O)[C@H](C)N(C)C1=O [PP0091] ([NMeL]I[NMeA][Aze][X41][Sar][hPhe(3-Cl-4-CF3)]P[Ac5c][NMeGly(cPent)][NMeD]-Morpholide; lactam N-11) | C (A compound having a KD ratio of 0.1 or more and less than 3 is denoted as C) | B (a compound having 3 or more and less than 10 is denoted as B) |
| CC[C@H](C)[C@@H]1NC(=O)[C@H](CC(C)C)N(C)C(=O)C[C@@H](C(=O)N2CCOCC2)N(C)C(=O)[C@H](C2CCCC2)N(C)C(=O)C2(CCCC2)NC(=O)[C@@H]2CCCN2C(=O)[C@H](CCc2ccc(C(F)(F)F)c(Cl)c2)NC(=O)CN(C)C(=O)[C@H](Cc2ccc(C)cc2)N(CCOC)C(=O)[C@@H]2CCN2C(=O)[C@H](C)N(C)C1=O [PP0092] ([NMeL]I[NMeA][Aze][X12][Sar][hPhe(3-Cl-4-CF3)]P[Ac5c][NMeGly(cPent)][NMeD]-Morpholide; lactam N-11) | C (A compound having a KD ratio of 0.1 or more and less than 3 is denoted as C) | C (A compound having a KD ratio of 0.1 or more and less than 3 is denoted as C) |
| CC[C@H](C)[C@@H]1NC(=O)[C@H](CC(C)C)N(C)C(=O)C[C@@H](C(=O)N2CCOCC2)N(C)C(=O)[C@H](C2CCCC2)N(C)C(=O)C2(CCCC2)NC(=O)[C@@H]2CCCN2C(=O)[C@H](CCc2ccc(C(F)(F)F)c(Cl)c2)NC(=O)CN(C)C(=O)[C@H](Cc2ccc(C)cc2)N(CCCOC)C(=O)[C@@H]2CCN2C(=O)[C@H](C)N(C)C1=O [PP0093] ([NMeL]I[NMeA][Aze][X26][Sar][hPhe(3-Cl-4-CF3)]P[Ac5c][NMeGly(cPent)][NMeD]-Morpholide; lactam N-11) | C (A compound having a KD ratio of 0.1 or more and less than 3 is denoted as C) | B (a compound having 3 or more and less than 10 is denoted as B) |
| CC[C@H](C)[C@@H]1NC(=O)[C@H](CC(C)C)N(C)C(=O)C[C@@H](C(=O)N2CCOCC2)N(C)C(=O)[C@H](C2CCCC2)N(C)C(=O)C2(CCCC2)NC(=O)[C@@H]2CCCN2C(=O)[C@H](CCc2ccc(C(F)(F)F)c(Cl)c2)NC(=O)CN(C)C(=O)[C@H](Cc2ccc(C)cc2)N(CC2CCC2)C(=O)CN(C)C(=O)CN(C)C1=O [PP0095] ([NMeL]I[Sar][Sar][X43][Sar][hPhe(3-Cl-4-CF3)]P[Ac5c][NMeGly(cPent)][NMeD]-Morpholide; lactam N-11) | C (A compound having a KD ratio of 0.1 or more and less than 3 is denoted as C) | C (A compound having a KD ratio of 0.1 or more and less than 3 is denoted as C) |
| CC[C@H](C)[C@@H]1NC(=O)[C@H](CC(C)C)N(C)C(=O)C[C@@H](C(=O)N2CCOCC2)N(C)C(=O)[C@H](C2CCCC2)N(C)C(=O)C2(CCCC2)NC(=O)[C@@H]2CCCN2C(=O)[C@H](CCc2ccc(C(F)(F)F)c(Cl)c2)NC(=O)CN(C)C(=O)[C@H](Cc2ccc(C)cc2)N(CC2CCCC2)C(=O)CN(C)C(=O)CN(C)C1=O [PP0096] ([NMeL]I[Sar][Sar][X29][Sar][hPhe(3-Cl-4-CF3)]P[Ac5c][NMeGly(cPent)][NMeD]-Morpholide; lactam N-11) | C (A compound having a KD ratio of 0.1 or more and less than 3 is denoted as C) | C (A compound having a KD ratio of 0.1 or more and less than 3 is denoted as C) |
| CC[C@H](C)[C@@H]1NC(=O)[C@H](CC(C)C)N(C)C(=O)C[C@@H](C(=O)N2CCOCC2)N(C)C(=O)[C@H](C2CCCC2)N(C)C(=O)C2(CCCC2)NC(=O)[C@@H]2CCCN2C(=O)[C@H](CCc2ccc(C(F)(F)F)c(Cl)c2)NC(=O)CN(C)C(=O)[C@H](Cc2ccc(C)cc2)N(CC2CCCCC2)C(=O)CN(C)C(=O)CN(C)C1=O [PP0097] ([NMeL]I[Sar][Sar][X27][Sar][hPhe(3-Cl-4-CF3)]P[Ac5c][NMeGly(cPent)][NMeD]-Morpholide; lactam N-11) | C (A compound having a KD ratio of 0.1 or more and less than 3 is denoted as C) | C (A compound having a KD ratio of 0.1 or more and less than 3 is denoted as C) |
| C=CCN1C(=O)CN(C)C(=O)CN(C)C(=O)[C@H]([C@@H](C)CC)NC(=O)[C@H](CC(C)C)N(C)C(=O)C[C@@H](C(=O)N2CCOCC2)N(C)C(=O)[C@H](C2CCCC2)N(C)C(=O)C2(CCCC2)NC(=O)[C@@H]2CCCN2C(=O)[C@H](CCc2ccc(C(F)(F)F)c(Cl)c2)NC(=O)CN(C)C(=O)[C@@H]1Cc1ccc(C)cc1 [PP0100] ([NMeL]I[Sar][Sar][X50][Sar][hPhe(3-Cl-4-CF3)]P[Ac5c][NMeGly(cPent)][NMeD]-Morpholide; lactam N-11) | B (a compound having 3 or more and less than 10 is denoted as B) | C (A compound having a KD ratio of 0.1 or more and less than 3 is denoted as C) |
